Laboratory results: ChEMBL document CHEMBL4765227, “Hit to lead optimization of a series of N-[4-(1,3-benzothiazol-2-yl)phenyl]acetamides as monoacylglycerol lipase inhibitors with potential anticancer activity” (Eur J Med Chem, 2016)

What was measured:
Assay type in all cases: functional
Conditions in all cases: read-out: GI
CCRF-CEM = assay: Growth inhibition of human CCRF-CEM cells at 10 uM incubated for 48 hrs by sulforhodamine B assay relative to control
HL-60(TB) = assay: Growth inhibition of human HL-60(TB) cells at 10 uM incubated for 48 hrs by sulforhodamine B assay relative to control
RPMI-8226 = assay: Growth inhibition of human RPMI-8226 cells at 10 uM incubated for 48 hrs by sulforhodamine B assay relative to control
SR = assay: Growth inhibition of human SR cells at 10 uM incubated for 48 hrs by sulforhodamine B assay relative to control
A549 = assay: Growth inhibition of human A549/ATCC cells at 10 uM incubated for 48 hrs by sulforhodamine B assay relative to control
HOP-92 = assay: Growth inhibition of human HOP-92 cells at 10 uM incubated for 48 hrs by sulforhodamine B assay relative to control
NCI-H226 = assay: Growth inhibition of human NCI-H226 cells at 10 uM incubated for 48 hrs by sulforhodamine B assay relative to control
NCI-H23 = assay: Growth inhibition of human NCI-H23 cells at 10 uM incubated for 48 hrs by sulforhodamine B assay relative to control
NCI-H322M = assay: Growth inhibition of human NCI-H322M cells at 10 uM incubated for 48 hrs by sulforhodamine B assay relative to control
NCI-H460 = assay: Growth inhibition of human NCI-H460 cells at 10 uM incubated for 48 hrs by sulforhodamine B assay relative to control
NCI-H522 = assay: Growth inhibition of human NCI-H522 cells at 10 uM incubated for 48 hrs by sulforhodamine B assay relative to control
COLO 205 = assay: Growth inhibition of human COLO 205 cells at 10 uM incubated for 48 hrs by sulforhodamine B assay relative to control
HCC 2998 = assay: Growth inhibition of human HCC 2998 cells at 10 uM incubated for 48 hrs by sulforhodamine B assay relative to control
HCT-116 = assay: Growth inhibition of human HCT-116 cells at 10 uM incubated for 48 hrs by sulforhodamine B assay relative to control
HCT-15 = assay: Growth inhibition of human HCT-15 cells at 10 uM incubated for 48 hrs by sulforhodamine B assay relative to control
HT-29 = assay: Growth inhibition of human HT-29 cells at 10 uM incubated for 48 hrs by sulforhodamine B assay relative to control
KM12 = assay: Growth inhibition of human KM12 cells at 10 uM incubated for 48 hrs by sulforhodamine B assay relative to control
SW-620 = assay: Growth inhibition of human SW-620 cells at 10 uM incubated for 48 hrs by sulforhodamine B assay relative to control
SF-268 = assay: Growth inhibition of human SF-268 cells at 10 uM incubated for 48 hrs by sulforhodamine B assay relative to control
SF-295 = assay: Growth inhibition of human SF-295 cells at 10 uM incubated for 48 hrs by sulforhodamine B assay relative to control
SF-539 = assay: Growth inhibition of human SF-539 cells at 10 uM incubated for 48 hrs by sulforhodamine B assay relative to control
SNB-19 = assay: Growth inhibition of human SNB-19 cells at 10 uM incubated for 48 hrs by sulforhodamine B assay relative to control
U-251 = assay: Growth inhibition of human U-251 cells at 10 uM incubated for 48 hrs by sulforhodamine B assay relative to control
LOX IMVI = assay: Growth inhibition of human LOX IMVI cells at 10 uM incubated for 48 hrs by sulforhodamine B assay relative to control
M14 = assay: Growth inhibition of human M14 cells at 10 uM incubated for 48 hrs by sulforhodamine B assay relative to control
MDA-MB-435 = assay: Growth inhibition of human MDA-MB-435 cells at 10 uM incubated for 48 hrs by sulforhodamine B assay relative to control
SK-MEL-5 = assay: Growth inhibition of human SK-MEL-5 cells at 10 uM incubated for 48 hrs by sulforhodamine B assay relative to control
UACC-257 = assay: Growth inhibition of human UACC-257 cells at 10 uM incubated for 48 hrs by sulforhodamine B assay relative to control
UACC-62 = assay: Growth inhibition of human UACC-62 cells at 10 uM incubated for 48 hrs by sulforhodamine B assay relative to control
OVCAR-4 = assay: Growth inhibition of human OVCAR-4 cells at 10 uM incubated for 48 hrs by sulforhodamine B assay relative to control
OVCAR-5 = assay: Growth inhibition of human OVCAR-5 cells at 10 uM incubated for 48 hrs by sulforhodamine B assay relative to control
OVCAR-8 = assay: Growth inhibition of human OVCAR-8 cells at 10 uM incubated for 48 hrs by sulforhodamine B assay relative to control
SK-OV-3 = assay: Growth inhibition of human SK-OV-3 cells at 10 uM incubated for 48 hrs by sulforhodamine B assay relative to control
ACHN = assay: Growth inhibition of human ACHN cells at 10 uM incubated for 48 hrs by sulforhodamine B assay relative to control
RXF 393 = assay: Growth inhibition of human RXF 393 cells at 10 uM incubated for 48 hrs by sulforhodamine B assay relative to control
SN12C = assay: Growth inhibition of human SN12C cells at 10 uM incubated for 48 hrs by sulforhodamine B assay relative to control
TK-10 = assay: Growth inhibition of human TK-10 cells at 10 uM incubated for 48 hrs by sulforhodamine B assay relative to control
UO-31 = assay: Growth inhibition of human UO-31 cells at 10 uM incubated for 48 hrs by sulforhodamine B assay relative to control
PC-3 = assay: Growth inhibition of human PC-3 cells at 10 uM incubated for 48 hrs by sulforhodamine B assay relative to control
DU-145 = assay: Growth inhibition of human DU-145 cells at 10 uM incubated for 48 hrs by sulforhodamine B assay relative to control
MDA-MB-231 = assay: Growth inhibition of human MDA-MB-231 cells at 10 uM incubated for 48 hrs by sulforhodamine B assay relative to control
Hs-578T = assay: Growth inhibition of human Hs-578T cells at 10 uM incubated for 48 hrs by sulforhodamine B assay relative to control
T47D = assay: Growth inhibition of human T47D cells at 10 uM incubated for 48 hrs by sulforhodamine B assay relative to control
MDA-MB-468 = assay: Growth inhibition of human MDA-MB-468 cells at 10 uM incubated for 48 hrs by sulforhodamine B assay relative to control

O=C(CNc1nnc(-c2ccc(Cl)cc2)o1)Nc1ccc(-c2nc3ccccc3s2)cc1
inhibition of growth at 10 µM (CCRF-CEM): 46.7%
inhibition of growth at 10 µM (HL-60(TB)): 6.27%
inhibition of growth at 10 µM (RPMI-8226): 4.61%
inhibition of growth at 10 µM (SR): 28.2%
inhibition of growth at 10 µM (A549): 4.18%
inhibition of growth at 10 µM (HOP-92): 12.1%
inhibition of growth at 10 µM (NCI-H226): 17.1%
inhibition of growth at 10 µM (NCI-H23): 11.3%
inhibition of growth at 10 µM (NCI-H322M): 4.86%
inhibition of growth at 10 µM (NCI-H460): 0.31%
inhibition of growth at 10 µM (NCI-H522): 22.9%
inhibition of growth at 10 µM (COLO 205): -4.34%
inhibition of growth at 10 µM (HCC 2998): 6.46%
inhibition of growth at 10 µM (HCT-116): 10.2%
inhibition of growth at 10 µM (HCT-15): 10.4%
inhibition of growth at 10 µM (HT-29): 4.3%
inhibition of growth at 10 µM (KM12): 2.99%
inhibition of growth at 10 µM (SW-620): -9.76%
inhibition of growth at 10 µM (SF-268): 22.6%
inhibition of growth at 10 µM (SF-295): -1.52%
inhibition of growth at 10 µM (SF-539): 2.97%
inhibition of growth at 10 µM (SNB-19): 9.4%
inhibition of growth at 10 µM (U-251): 18.4%
inhibition of growth at 10 µM (LOX IMVI): 143%
inhibition of growth at 10 µM (M14): -1.85%
inhibition of growth at 10 µM (MDA-MB-435): 2.95%
inhibition of growth at 10 µM (SK-MEL-5): 7.93%
inhibition of growth at 10 µM (UACC-257): -2.8%
inhibition of growth at 10 µM (UACC-62): 13.9%
inhibition of growth at 10 µM (OVCAR-4): -3.22%
inhibition of growth at 10 µM (OVCAR-5): -16.4%
inhibition of growth at 10 µM (OVCAR-8): -2.95%
inhibition of growth at 10 µM (SK-OV-3): -16.6%
inhibition of growth at 10 µM (ACHN): -12%
inhibition of growth at 10 µM (RXF 393): -0.2%
inhibition of growth at 10 µM (SN12C): 5.48%
inhibition of growth at 10 µM (TK-10): 8.25%
inhibition of growth at 10 µM (UO-31): 26.7%
inhibition of growth at 10 µM (PC-3): 11.4%
inhibition of growth at 10 µM (DU-145): 1.53%
inhibition of growth at 10 µM (MDA-MB-231): 1.2%
inhibition of growth at 10 µM (Hs-578T): 3.06%
inhibition of growth at 10 µM (T47D): 20.1%
inhibition of growth at 10 µM (MDA-MB-468): 110%

Cc1cc(NCC(=O)Nc2ccc(-c3nc4ccccc4s3)cc2)no1
inhibition of growth at 10 µM (CCRF-CEM): 46.3%
inhibition of growth at 10 µM (HL-60(TB)): 3.55%
inhibition of growth at 10 µM (RPMI-8226): 1.57%
inhibition of growth at 10 µM (SR): 30.1%
inhibition of growth at 10 µM (A549): 7.66%
inhibition of growth at 10 µM (HOP-92): -0.34%
inhibition of growth at 10 µM (NCI-H226): 8.98%
inhibition of growth at 10 µM (NCI-H23): 17.2%
inhibition of growth at 10 µM (NCI-H322M): -1.5%
inhibition of growth at 10 µM (NCI-H460): -2.65%
inhibition of growth at 10 µM (NCI-H522): 17.9%
inhibition of growth at 10 µM (COLO 205): -7.78%
inhibition of growth at 10 µM (HCC 2998): 0.84%
inhibition of growth at 10 µM (HCT-116): 9.26%
inhibition of growth at 10 µM (HCT-15): 9.32%
inhibition of growth at 10 µM (HT-29): -4.71%
inhibition of growth at 10 µM (KM12): -1.64%
inhibition of growth at 10 µM (SW-620): -13.2%
inhibition of growth at 10 µM (SF-268): 12.6%
inhibition of growth at 10 µM (SF-295): 3.62%
inhibition of growth at 10 µM (SF-539): -5.46%
inhibition of growth at 10 µM (SNB-19): 3.47%
inhibition of growth at 10 µM (U-251): 11.9%
inhibition of growth at 10 µM (LOX IMVI): 143%
inhibition of growth at 10 µM (M14): -5.87%
inhibition of growth at 10 µM (MDA-MB-435): -4.18%
inhibition of growth at 10 µM (SK-MEL-5): 12.3%
inhibition of growth at 10 µM (UACC-257): 0.29%
inhibition of growth at 10 µM (UACC-62): 13.5%
inhibition of growth at 10 µM (OVCAR-4): -10.7%
inhibition of growth at 10 µM (OVCAR-5): -19%
inhibition of growth at 10 µM (OVCAR-8): 3.61%
inhibition of growth at 10 µM (SK-OV-3): -19.7%
inhibition of growth at 10 µM (ACHN): -10.7%
inhibition of growth at 10 µM (RXF 393): -4.8%
inhibition of growth at 10 µM (SN12C): -2.43%
inhibition of growth at 10 µM (TK-10): 7.91%
inhibition of growth at 10 µM (UO-31): 23%
inhibition of growth at 10 µM (PC-3): 3.37%
inhibition of growth at 10 µM (DU-145): 4.13%
inhibition of growth at 10 µM (MDA-MB-231): -8.49%
inhibition of growth at 10 µM (Hs-578T): -1.12%
inhibition of growth at 10 µM (T47D): 19.7%
inhibition of growth at 10 µM (MDA-MB-468): 147%
